Measured values as given in PubChem BioAssay AID1963446 (Molecular Pharmacology Branch, DTP, NCI, 2024).

System: 993429-296-R-J1-PDC complex spheroid growth, percent test/control
Assay: Anticancer human tumor 993429-296-R-J1-PDC patient-derived uterine sarcoma cell line growth inhibition [Asc]
Conditions: for IC50: curve of first compound; for viability, T/C: stronger effect = lower value; active means viability on the fitted dose curve at most 10% of control; inactive means the rest
Experimental: Multicellular complex tumor spheroid response to apoptosis pathway targeting inhibitors Alrizomadlin, Pelcitoclax, and Dasminapant in combination with a variety of drugs and investigational agents in selected tumor cell lines
The MDM2 inhibitor alrizomadlin, the Bcl-2/Bcl-xL inhibitor pelcitoclax, and the IAPs inhibitor dasminapant were evaluated both individually and in combination with standard of care and investigational anticancer small molecules within a complex spheroid model of solid tumors. . Complex spheroids include a stromal component modeled by human endothelial cells (HUVEC) and fibroblasts modeled by human mesenchymal stem cells (MSCs). The concentration ranges selected for each drug and investigational agent were based upon clinically achievable concentrations if the clinical Cmax of the agent was known.
Compounds. The drugs and investigational agents: alrizomadlin (APG-115; NSC831270), pelcitoclax (APG-1252; NSC835773), dasminapant (APG-1387;NSC834197), TAK-243 (NSC785004), copanlisib (NSC809693), olaparib (NSC753686), talazoparib (NSC767125), cobimetinib (NSC 768068), eltanexor (KPT-8602, NSC 794443), abemaciclib (NSC 768073), sotorasib (NSC818433), adagrasib (NSC 831453), MRTX-1133 (NSC 836407), Iadademestat (ORY1001, NSC 806812), and RMC-4630 (NSC839698), were obtained from the NCI Developmental Therapeutics Program Chemical Repository. The FDA-approved anticancer drug set is available from the Developmental Therapeutics Program at https://dtp.cancer.gov/organization/dscb/obtaining/available plates.htm. […] The stock solutions were prepared in dimethyl sulfoxide (DMSO, Sigma-Aldrich, St. Louis, MO, cat. D2650) at 800-fold the tested concentration and stored at -70 degrees C prior to their use. All drugs and investigational agents were tested over a range starting from a high concentration at or near the clinical Cmax and decreasing in half-log increments. If the clinical Cmax for an agent had not been determined, the highest concentration tested was 10 microM.
The patient-derived cancer (PDC) cell lines include five colon adenocarcinomas: 186277-243-T-J2-PDC, 616215-338-R-J1-PDC, 439559-082-T-J2-PDC, 463943-066-T-J2-PDC, and 519858-162-T-J1-PDC; three pancreatic carcinomas: 323965-272-R-J2-PDC, 521955-158-R6-J3-PDC, and 521955-158-R2-J5-PDC; two uterine sarcomas: 327498-152-R-J2-PDC and 993429-296-R-J1-PDC; two rhabdomyosarcomas: 755483-174-R-J1-PDC and 772245-204-R-J1-PDC; two soft tissue sarcomas: 126254-015-R-J1-PDC and 494315-158-R-J1-PDC; two malignant fibrous histiocytomas: 317291-083-R-J1-PDC and 596521-263-R-J1-PDC; two breast carcinomas: 171881-019-R-J1-PDC and 885512-296-R-J2-PDC; and one ovarian carcinoma: 6556581-035-R-J-PDC were obtained from the NCI PDMR, (https://pdmr.cancer.gov). The established cell lines HSSY-2 synovial sarcoma (RRID:CVCL 8719), SYO-1 synovial sarcoma (RRID:CVCL_7146), MPNST malignant peripheral neural sheath tumor were obtained from the Sloan Kettering Institute. The following established cell lines were purchased from the American Type Culture Collection (ATCC, Manassas, VA), Sor the received from the NCI repository:, PANC-1 pancreatic carcinoma (CRL-1469, RRID:CVCL_0480), OVCAR-5 ovarian carcinoma (RRID:CVCL_1628), OVCAR-8 ovarian carcinoma (RRID:CVCL_1629), , MCF-7 breast carcinoma (CRL-12584, RRID:CVCL_0031), MDA-MB-231 breast carcinoma (CRL-12532, RRID:CVCL_0062), NCI-H1876 small cell lung carcinoma (CRL-5902, RRID:CVCL_1503), NCI-H510A small cell lung carcinoma (HTB-184, RRID:CVCL_1565), NCI-H1417 (CRL-5869, RRID:CVCL_1469), and NCI-H196 small cell lung carcinoma (CRL-5823, RRID:CVCL_1509). Dr. Peter Houghton (Greehey Children's Cancer Research Institute, University of Texas Health Science Center, San Antonio, TX) provided Rh-18 rhabdomyosarcoma (RRID:CVCL_1659). Pooled donor human umbilical vein endothelial cells (HUVEC, Lonza, cat. CC-2519) and human mesenchymal stem cells (hMSC, Lonza, cat. PT-2501) were purchased from Lonza (Walkersville, MD).
Cell Culture. […]

[1] = second compound 0.03 µM, first compound 0.0316 µM
[2] = second compound 0.03 µM, first compound 0.1 µM
[3] = second compound 0.0949 µM, first compound 0.0316 µM
[4] = second compound 0.0949 µM, first compound 0.1 µM
[5] = second compound 0.3 µM, first compound 0.0316 µM
[6] = second compound 0.3 µM, first compound 0.1 µM
[7] = second compound 0.949 µM, first compound 0.0316 µM
[8] = second compound 0.949 µM, first compound 0.1 µM
[9] = second compound 3 µM, first compound 0.0316 µM
[10] = second compound 3 µM, first compound 0.1 µM
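Further: spheroids exposed to compounds for seven days.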

Cn1ncnc1[C@H]1c2n[nH]c(=O)c3cc(F)cc(c23)N[C@@H]1c1ccc(F)cc1 + CCN1C(C(=O)NC23CCC(C(=O)O)(CC2)CC3)C(c2cccc(Cl)c2F)C2(C(=O)Nc3cc(Cl)ccc32)C12CCCCC2
0.0653 µM: IC50 (second compound 0.3 µM)
inactive: viability, T/C (second compound 0.03 µM, first compound 0.000316 µM) 114% | viability, T/C (second compound 0.03 µM, first compound 0.001 µM) 107% | viability, T/C (second compound 0.03 µM, first compound 0.00316 µM) 104% | viability, T/C (second compound 0.03 µM, first compound 0.01 µM) 62% | viability, T/C [1] 62% | viability, T/C [2] 45.1% | viability, T/C (second compound 0.0949 µM, first compound 0.000316 µM) 94% | viability, T/C (second compound 0.0949 µM, first compound 0.001 µM) 102% | viability, T/C (second compound 0.0949 µM, first compound 0.00316 µM) 89.4% | viability, T/C (second compound 0.0949 µM, first compound 0.01 µM) 73.6% | viability, T/C [3] 64.6% | viability, T/C [4] 45.4% | viability, T/C (second compound 0.3 µM, first compound 0.000316 µM) 96.5% | viability, T/C (second compound 0.3 µM, first compound 0.001 µM) 104% | viability, T/C (second compound 0.3 µM, first compound 0.00316 µM) 90.6% | viability, T/C (second compound 0.3 µM, first compound 0.01 µM) 77.3% | viability, T/C [5] 66% | viability, T/C [6] 41.4% | viability, T/C (second compound 0.949 µM, first compound 0.000316 µM) 109% | viability, T/C (second compound 0.949 µM, first compound 0.001 µM) 101% | viability, T/C (second compound 0.949 µM, first compound 0.00316 µM) 92.3% | viability, T/C (second compound 0.949 µM, first compound 0.01 µM) 65.1% | viability, T/C [7] 59.9% | viability, T/C [8] 48% | viability, T/C (second compound 3 µM, first compound 0.000316 µM) 91.5% | viability, T/C (second compound 3 µM, first compound 0.001 µM) 91.8% | viability, T/C (second compound 3 µM, first compound 0.00316 µM) 82.8% | viability, T/C (second compound 3 µM, first compound 0.01 µM) 72.5% | viability, T/C [9] 61.5% | viability, T/C [10] 43.9%
> 0.1 µM: IC50 (second compound 0.03 µM) | IC50 (second compound 0.949 µM)
0.0758 µM: IC50 (second compound 0.0949 µM)
0.0662 µM: IC50 (second compound 3 µM)

O=C(c1cc(Cc2n[nH]c(=O)c3ccccc23)ccc1F)N1CCN(C(=O)C2CC2)CC1 + CCN1C(C(=O)NC23CCC(C(=O)O)(CC2)CC3)C(c2cccc(Cl)c2F)C2(C(=O)Nc3cc(Cl)ccc32)C12CCCCC2
4.9 µM: IC50 (second compound 0.949 µM)
inactive: viability, T/C [1] 87.8% | viability, T/C [2] 104% | viability, T/C (second compound 0.03 µM, first compound 0.316 µM) 98% | viability, T/C (second compound 0.03 µM, first compound 1 µM) 100% | viability, T/C (second compound 0.03 µM, first compound 3.16 µM) 66.3% | viability, T/C (second compound 0.03 µM, first compound 10 µM) 39.5% | viability, T/C [3] 109% | viability, T/C [4] 106% | viability, T/C (second compound 0.0949 µM, first compound 0.316 µM) 87.9% | viability, T/C (second compound 0.0949 µM, first compound 1 µM) 113% | viability, T/C (second compound 0.0949 µM, first compound 3.16 µM) 61.9% | viability, T/C (second compound 0.0949 µM, first compound 10 µM) 29.6% | viability, T/C [5] 92% | viability, T/C [6] 100% | viability, T/C (second compound 0.3 µM, first compound 0.316 µM) 99.7% | viability, T/C (second compound 0.3 µM, first compound 1 µM) 78.6% | viability, T/C (second compound 0.3 µM, first compound 3.16 µM) 76.1% | viability, T/C (second compound 0.3 µM, first compound 10 µM) 38.5% | viability, T/C [7] 100% | viability, T/C [8] 113% | viability, T/C (second compound 0.949 µM, first compound 0.316 µM) 88.8% | viability, T/C (second compound 0.949 µM, first compound 1 µM) 81% | viability, T/C (second compound 0.949 µM, first compound 3.16 µM) 62.2% | viability, T/C (second compound 0.949 µM, first compound 10 µM) 32.1% | viability, T/C [9] 96.6% | viability, T/C [10] 90.3% | viability, T/C (second compound 3 µM, first compound 0.316 µM) 78.4% | viability, T/C (second compound 3 µM, first compound 1 µM) 83.1% | viability, T/C (second compound 3 µM, first compound 3.16 µM) 48.3% | viability, T/C (second compound 3 µM, first compound 10 µM) 33.1%
6.87 µM: IC50 (second compound 0.3 µM)
6.36 µM: IC50 (second compound 0.03 µM)
4.84 µM: IC50 (second compound 0.0949 µM)
3.04 µM: IC50 (second compound 3 µM)
